# Data: US20060019971A1, “Treatment of cardiovascular disease with inhibitors of p38 kinase” (priority 2003, published 2006)
# Key:
# p38 MAP kinase = biological target: T1, p38 MAP kinase (Homo sapiens, UniProt Q16539); assay: p38 MAP kinase phosphorylation assay (similar to Kumar); format: biochemical; conditions: assay similar to the phosphorylation assay (Kumar)
# T1 construct: expressed in transfected cells; kinase immunoprecipitated from lysates
# Description: Alternative assays involving in vitro analysis of potential inhibitors include those where cells (HeLa) transfected with DNA coding for relevant kinases can be activated with substances such as sorbitol, IL-1, TNF, or PMA (phorbol myristate acetate). After immunoprecipitation of cell lysates, equal aliquots of immune complexes of the kinases are pre-incubated for an adequate time with a specific concentration of the potential inhibitor followed by addition of kinase substrate buffer mix containing labeled ATP and GST-ATF2 or MBP. After incubation, kinase reactions are ceased by the addition of SDS loading buffer. Phosphorylated substrate is resolved through SDS-PAGE and visualized and quantitated in a phosphorimager. Both p38 regulation, in terms of phosphorylation, and IC50 values can be determined by quantitation. See, for example Kumar,S., McDonnell, P., Gum, R., Hand, A., Lee, J., and Young, P. (1997) Biochem. Biophys. Res. Commun. 235, 533-538.
# IL-1β mRNA in HPBMCs = assay: IL-1β gene expression in HPBMCs, real-time PCR; format: cell-based, human; conditions: 1 μM SD, 2 hrs
# Description: (§1) 5×10^6 HPBMCs were plated in 6-well. After 1 hour medium was removed and cells were treated with vehicle or 1μM p38 inhibitor in RPMI 1640 medium. After 1 hour cells were stimulated with 10% FCS only or 10 μg/ml CRP plus 10% FCS. After 6 hours conditioned medium was collected and IL-1b and TNFa levels were determined by ELISA. […] 5×10^6 HPBMCs were plated in 6-well. After I hour medium was removed and cells were treated with vehicle or […] p38 inhibitor in RPMI 1640 medium. After 1 hour cells were stimulated with 10% FCS only or 10 μg/ml CRP plus 10% FCS. After 2 hours RNA was extracted from the cells and TNFa (c) and IL-1b (d) expression levels were determined by real-time PCR as described in the Experimental section. […]
# (§2) RNA was extracted from the cells using Qiagen RNA extraction kit according to the manufacturer's instruction. The expression of pro-inflammatory genes IL-1β, IL-6, IL-8, TNFα, COX-2, ET-1, TF were assessed by real-time PCR. […]
# (§3) Real-time RT-PCR was performed in a two-step manner. cDNA synthesis and real-time detection were carried out in a PTC-100™ Thermal Cycler (MJ Research Inc, Waltham, Mass.) and an ABI Prism™ 7700 Sequence Detection System (Applied Biosystems, Foster City, Calif.), respectively. […] Relative quantitation of gene expression was performed using the relative standard curve method. […]
# [1] = system: TNFα secretion from HPBMCs; assay: TNFα secretion from HPBMCs, ELISA; format: cell-based, human; conditions: 1 μM SD, 6 hours
# Description: as §1
# Conditioned media from the treated cells were collected (6 to 20 hrs), and the level of secreted interleukin 6 (IL-6), interleukin 1 beta (IL-1 β), tumor necrosis factor alpha (TNFα), and interleukin 8 (IL-8) was determined by ELISA according to the manufacturer's instruction (Biosource International, Camarillo, Calif.). […]
# TNFα and IL-β are initial inflammatory cytokines produced when monocytes are activated during infalmmation. […] HPBMCs were incubated with either 10% FCS or CRP plus 10% FCS for 6 hours and secreted cytokines TNFα and IL-1β were measured by ELISA. […]
# TNFα mRNA in HPBMCs = assay: TNFα gene expression in HPBMCs, real-time PCR; format: cell-based, human; conditions: 2 hours
# Description: as §1, §2, §3
# T1 sequence (Q16539 whole entry): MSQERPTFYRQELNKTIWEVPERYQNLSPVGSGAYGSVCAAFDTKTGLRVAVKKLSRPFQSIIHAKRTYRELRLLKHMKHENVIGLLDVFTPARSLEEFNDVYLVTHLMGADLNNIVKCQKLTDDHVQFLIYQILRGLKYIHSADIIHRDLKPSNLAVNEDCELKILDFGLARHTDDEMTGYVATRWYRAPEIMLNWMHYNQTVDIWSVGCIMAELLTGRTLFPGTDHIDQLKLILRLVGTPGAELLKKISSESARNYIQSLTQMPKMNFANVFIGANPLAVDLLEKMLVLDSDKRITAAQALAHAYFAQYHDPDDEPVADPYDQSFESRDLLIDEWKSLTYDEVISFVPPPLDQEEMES
smiles,measurement,setting,value
C[C@@H]1CN(Cc2ccc(F)cc2)[C@@H](C)CN1C(=O)c1cc2c(C(=O)C(=O)N(C)C)c[nH]c2cc1Cl [Compound 162],p38 MAP kinase activity,p38 MAP kinase,exhibit p38 MAP kinase activity
same,inhibition of FCS induced expression of IL-1β gene,IL-1β mRNA in HPBMCs,attenuated
same,"FCS induced TNFα secretion, sensitivity to p38 inhibition",[1]; 10% FCS,sensitive
same,inhibition of CRP-invoked TNFα secretion,[1]; CRP plus 10% FCS,strongly inhibited
same,inhibition of CRP augmented TNFα transcription,TNFα mRNA in HPBMCs; 1 μM SD,completely attenuated
same,"FCS induced TNFα transcription, sensitivity to SD treatment",TNFα mRNA in HPBMCs; 10% FCS,sensitive
